Consider one compound from US9375457B2, “Composition comprising Rhizoma coptidis, Cortex phellodendri and Fructus gardeniae and for treating neurodegenerative diseases” (Hong Kong Baptist University, priority 2013, dated 2016).

For data set [1], the system named is N2a-SwedAPP cells. Put plainly: MTT viability assay in N2a-SwedAPP cells. It is filed as cell-based, murine. As to conditions: mouse, 48 h. Here is the method: (§1) N2a-SwedAPP cells were obtained from Dr. Gopal Thinakaran (University of Chicago, Chicago, Ill., USA). N2a-SwedAPP cells were cultured in Dulbecco's modified Eagle's medium (DMEM) and OPTI-MEM medium in a 1:1 ratio with 5% FBS, 50 μg/mL penicillin, 50 μg/mL streptomycin and 200 μg/mL G418 as previously described in Thinakaran G, Teplow D B, Siman R, Greenberg B, Sisodia S S (1996) Metabolism of the “Swedish” amyloid precursor protein variant in neuro2a (N2a) cells. J Biol Chem 271: 9390-9397. N2a-SwedAPP cells were incubated at 37° C. in a 5% CO2/95% humidity incubator. Cells were seeded 24 hours prior to the treatments. When growth reached close to 90% of confluence, cells were transferred into DMEM with 1% FBS for loading extracts. The final concentration of DMSO in all experiments was 0.1%, and this concentration caused no cytotoxicity.
For the viability assay, N2a-SwedAPP cells were seeded in a 96-well plate (7000 cells/well and 5000 cells/well). […] Finally, optical intensity was measured using a BioRad plate reader at 570 nm and a reference of 620 nm. […]
N2a-SwedishAPP cells are widely used as a cellular model of Alzheimer's disease, because they express a high level of APP and Aβ. The effects of HLJDT and its components on viability of N2SwedAPP cells are monitored by using the MTT assay. […]
(Tetrazolium assays rely on reduction of a dye to a coloured formazan, in cell work by metabolically active cells.)

Data set [2] has as its system APP processing (F1-APP, pAPPThr668, CTFs, sAPPα, sAPPβ-sw) in N2a-SwedAPP cells. Put plainly: Western blot of APP metabolic products in N2a-SwedAPP cells. It is filed as cell-based, murine. Further details: key to Fl-APP (overall influence) / CTFs (overall influence) / sAPPα (overall influence) / sAPPβ (overall influence): ↓ decreased; ↑ increased; ? unchanged. Here is the method: as §1
To detect the levels of APP metabolic products, the cell lysates and the conditioned media were prepared as described in Durairajan S S K, Liu L F, Lu J H, Koo I, Maruyama K, Chung S K, Huang J D, Li M. (2011) Stimulation of non-amyloidogenic processing of amyloid-β protein precursor by cryptotanshinone involves activation and translocation of ADAM10 and PKC-α. J Alzheimer's Dis 25: 245-262, with minor modification. N2a-SwedAPP cells were seeded at a density of 4×10^5/mL in DMEM medium in a 6-well plate and cultured for 1 day. After transfer, cells were treated with different doses of RC, CP, FG and RS for 48 hours, then the extracellular media were collected for detection of sAPPα and sAPPβ-sw, and cells were harvested to quantify F1-APP and β-actin by Western blot analysis, as described previously by Durairajan et al. For intracellular APP, APP-CTFs and Aβ preparation, cells were washed with ice-cold PBS twice and solubilized in ice-cold RIPA buffer with protease inhibitor cocktail added. Lysates were collected and centrifuged at 16,000×g for 15 minutes at 4° C. The resulting supernatants were collected, and their protein concentrations were determined with bicinchoninic acid (BCA) protein assay reagent (Thermo Scientific, IL, USA). For sAPPα and sAPPβ-sw detection, the conditioned media are collected and frozen in liquid nitrogen, subjected to lyophilization at −40° C. under vacuum of 105 μbar for 2 days in order to remove all liquid. The conditioned media were standardized to total cell lysate protein.
For Western blot analysis from cell culture or mouse brain, 10-30 μg total protein is separated on 10% and 15% SDS-PAGE gels and blotted onto PVDF membranes for the detection of full length APP (F1-APP), CTFs, sAPPα, sAPPβ-sw, 3-actin and phosphorylated APP (pAPPThr668). After blocking with 5% skimmed milk, the blots are incubated with primary antibodies overnight at 4° C. with shaking. Blots are washed and incubated with HRP-conjugated secondary antibodies. The goat anti-mouse IgG is used when the primary antibody is 6E10 (1:1000), sAPPβ-sw (1:100), or anti-β-actin (1:5000), and the goat anti-rabbit IgG is used when the primary antibody is anti-CT15 (1:5000) or pAPPThr668 (1:1000). After incubation with HRP-conjugated secondary antibody, immunoblots are treated with ECL and developed using X-ray films (Fujifilm). Films are scanned, and the band intensity is analyzed using Image J software (NIH Image).
Stripped CT15 and 6E10 probed membranes are reincubated with pAPPThr668 and sAPPβ-sw 6A1 antibodies, respectively.
Western blotting of N2a-SwedAPP cells is used to test differences in the processing of Swedish mutant APP by HLJDT components. Several antibodies are used in Western blot analysis: CT15 recognizes full length APP (F1-APP), 6E10 identifies only α-secretase-cleaved APP i.e sAPPα, and the sAPPβ-sw specific for β-secretase cleavage of Swedish mutant APP.
(A western blot detects proteins with antibodies after separation by electrophoresis.)

Consider `O=c1cc(-c2ccccc2)oc2cc(O)c(O)c(O)c12` [baicalein], for which the “non-toxic concentration (highest concentration that shows greater than 90% cell viability)” value in data set [1] came out at 12.5 µM. In addition, in data set [2] (12.5 μM, 48 hours), the “maximal increase of CTFs, fold of basal release” value was 2.36 fold; the “maximal increase of F1-APP, fold of basal release” value worked out at 1.68 fold; the “maximal increase of pAPPThr668, fold of basal release” value stood at 1.58 fold; the “maximal secretion of sAPPα, fold of basal release” value is reported as 2.65 fold. The “maximal secretion of sAPPβ-sw, fold of basal release” value in data set [2] (12.5 μM, 48 hours) amounted to 1.70 fold. For the same compound, in data set [2] (N2a-SwedAPP cells), the “CTFs (overall influence)” value is given as “↑”, the “Fl-APP (overall influence)” value is recorded as “↑”, the “sAPPα (overall influence)” value is reported as “↑” and the “sAPPβ (overall influence)” value is on record as “↑”.
